We go through 1 compound from US12503453B2, “USP7 inhibition” (Dana-Farber Cancer Institute, Inc., priority 2018, dated 2025).

One series has as its target full length USP7 (Homo sapiens (Human), UniProt Q93009). The series is described as follows: Ub-AMC enzymatic assay with full-length USP7. The series is classed as biochemical. To be noted: full-length USP7, Ub-AMC. As to the method:
Both constructs were overexpressed in E. coli BL21 (DE3). Cells were grown at 37° C. to an OD of 0.9, cooled to 16° C., induced with 500 μM isopropyl-1-thio-D-galactopyranoside (IPTG), incubated overnight at 16° C., collected by centrifugation, and stored at −80° C. Cell pellets were sonicated in lysis buffer (25 mM Tris pH 8, 1 M NaCl, and 10 mM BME) supplemented with 10 μg/ml phenylmethanesulfonylfluoride (PMSF) and the resulting lysate was centrifuged at 30,000×g for 40 min. Ni-NTA beads (Qiagen) were mixed with lysate supernatant for 2 hours, and washed with lysis buffer supplemented with 25 mM imidazole. The bound protein was eluted with lysis buffer supplemented with 300 mM imidazole. The sample was then concentrated to 1 ml (30 kDa concentrator; Amicon Ultra, Millipore), and run on a Superdex 200 (GE healthcare) in buffer containing 25 mM HEPES pH 7.5, 200 mM NaCl, and 1 mM DTT. Fractions were pooled, concentrated and frozen at −80° C.
(§1) Full length USP7 was tested for its activity in Ubiquitin-AMC assay in presence or absence of inhibitors. USP7 (5 nM) was pre-incubated for 6 hours at room temperature with different concentrations of inhibitors or DMSO as a control in 50 mM HEPES pH 7.5, 0.5 mM EDTA, 11 μM ovalbumin, and 5 mM DTT. Ubiquitin-AMC (Boston Biochem) was then added to a final concentration of 500 nM. The initial rate of the reaction was measured by collecting fluorescence data at one minute intervals over 30-minute period using a Clariostar fluorescence plate reader at excitation and emission wavelength of 345 and 445 nm respectively. The calculated initial rate values were plotted against inhibitor concentrations to determine IC50s. All the experimental data were plotted using Prism GraphPad. All assays for each compound were performed at least twice for each compound.

A further series deals with USP7-Q351S (Homo sapiens (Human), UniProt Q93009, Q351S). Put plainly: Ub-AMC assay with mutant USP7-Q351S. The series is classed as biochemical. To be noted: 6-hr pre-incubation. As to the method: as §1
Chain of USP7-Q351S (Q93009 whole entry Q351S): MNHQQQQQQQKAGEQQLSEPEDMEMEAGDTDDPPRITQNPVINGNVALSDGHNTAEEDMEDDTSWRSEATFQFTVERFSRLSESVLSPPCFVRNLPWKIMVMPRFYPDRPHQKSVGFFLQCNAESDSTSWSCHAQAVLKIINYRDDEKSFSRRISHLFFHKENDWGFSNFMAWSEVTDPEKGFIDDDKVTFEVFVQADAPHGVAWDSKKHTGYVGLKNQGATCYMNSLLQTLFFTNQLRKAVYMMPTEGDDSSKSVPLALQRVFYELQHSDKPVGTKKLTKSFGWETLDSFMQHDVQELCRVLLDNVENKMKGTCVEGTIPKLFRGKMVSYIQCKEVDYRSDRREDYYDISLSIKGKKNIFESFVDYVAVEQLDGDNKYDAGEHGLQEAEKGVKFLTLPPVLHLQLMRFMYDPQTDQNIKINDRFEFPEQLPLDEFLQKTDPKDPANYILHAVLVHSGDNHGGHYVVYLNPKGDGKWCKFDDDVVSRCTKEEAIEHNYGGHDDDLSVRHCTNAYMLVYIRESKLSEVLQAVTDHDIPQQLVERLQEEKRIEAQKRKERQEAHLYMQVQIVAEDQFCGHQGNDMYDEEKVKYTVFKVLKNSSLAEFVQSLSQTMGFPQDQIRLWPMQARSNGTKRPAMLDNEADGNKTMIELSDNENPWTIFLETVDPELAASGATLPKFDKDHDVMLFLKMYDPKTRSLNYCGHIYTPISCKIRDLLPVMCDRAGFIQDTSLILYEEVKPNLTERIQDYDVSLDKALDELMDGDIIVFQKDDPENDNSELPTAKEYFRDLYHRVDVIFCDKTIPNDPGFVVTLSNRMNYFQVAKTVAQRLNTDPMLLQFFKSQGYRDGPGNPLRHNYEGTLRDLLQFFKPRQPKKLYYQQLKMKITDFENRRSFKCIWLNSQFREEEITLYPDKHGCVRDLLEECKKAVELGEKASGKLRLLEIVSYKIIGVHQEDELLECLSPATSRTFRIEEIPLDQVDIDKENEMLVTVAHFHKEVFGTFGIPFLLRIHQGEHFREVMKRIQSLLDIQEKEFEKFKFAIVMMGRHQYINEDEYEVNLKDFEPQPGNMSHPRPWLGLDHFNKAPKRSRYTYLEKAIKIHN
Series [1] relates to 41 purified recombinant DUBs. The series is described as follows: In vitro DUB profiling, panel of 41 recombinant DUBs (Ub-Rho). In kind it is biochemical. To be noted: 1 μM, 15 minutes pre-incubation. The procedure: Compounds were screened using the Ubiquigent Drug Profiler SPT system. Each of 41 purified DUBs was incubated with compound for 15 minutes, then ubiquitin rhodamine 110 (Ub-Rho) was added and percent inhibition determined based on fluorescence relative to a DMSO control.

The subject of another series is TC138 cells. Put plainly: Cell proliferation (CellTiter-Glo), TC138. To be noted: TP53 wild-type, 3 days. In kind it is cell-based. The procedure: (§2) Cells were plated in 384-well culture-treated plates and allowed to settle overnight. After drug treatment and appropriate incubation time, cell viability was assessed using the CellTiter-Glo Luminescent Cell Viability Assay (Promega). Luminescence was read on a Fluostar Omega Reader (BMG Labtech).
On the technique in general: ATP-based viability assays read luminescence as a measure of living cells.

Another series has as its system TC71 cells. Put plainly: Cell proliferation (CellTiter-Glo), TC71. To be noted: TP53-mutant, 3 days. The series is classed as cell-based. The procedure: as §2
In series [2] the test system is TC32 cells expressing sgTP53. The series is described as follows: Cell proliferation of TC32 cells with TP53 knockout. The series is classed as cell-based. As to conditions: 3 days. The procedure: as §2
Lentivirus was produced by transfecting HEK-293T cells with the pLentiV2 vector (Addgene plasmid #52961) and the packaging plasmids pCMV8.9 and pCMV-VSVG according to the FuGENE 6 (Roche) protocol. For lentiviral transduction, Ewing sarcoma cells were incubated with 2 mL of virus and 8 μg/mL of polybrene (Sigma-Aldrich). Cells were selected in puromycin (Sigma-Aldrich) 48 hours after infection for single knockout experiments.
sgRNAs were designed using the Broad Institute's sgRNA designer tool. The following sequences were used as control or to target the respective genes: […]

Another series has as its system MCF7 cells. Put plainly: Transcriptome profiling, 3' Digital Gene Expression RNA-seq. In kind it is cell-based. To be noted: 24 hours, low or high doses. From the text: Overall, transcripts were detected for 7000-10,000 genes (7276 genes detected across all conditions).
The same report had also identified a set of dimerization partner, Retinoblastoma-like, E2F and multi-vulval class B (DREAM) complex target genes by combining p53 repression data (generated in part with Nutlin-3A-treated MCF7 cells) with cell cycle expression and DREAM component binding.

Chain of full length USP7 (Q93009 whole entry): as the sequence (Q93009 whole entry Q351S) above, with S351Q counted along it

In the case of `CN1CCN(CCC(=O)Nc2ccc3c(=O)n(CC4(O)CCN(C(=O)[C@@H](CCCNC(=O)c5ccc6c(Cl)c7c(nc6c5)CCCC7)Cc5ccccc5)CC4)cnc3c2)CC1` [compound 6, (S)—N-(4-benzyl-5-(4-hydroxy-4-((7-(3-(4-methylpiperazin-1-yl)propanamido)-4-oxoquinazolin-3(4H)-yl)methyl)piperidin-1-yl)-5-oxopentyl)-9-chloro-5,6,7,8-tetrahydroacridine-3-carboxamide], on full length USP7, the “IC50 against USP7 (range in words)” value was “subnanomolar range”. Also, the “loss in potency compared to wild-type enzyme” value on USP7-Q351S is 100 fold. Also, in series [1], the “activity against other DUBs of the panel” value is given as “did not exhibit significant activity against any other DUBs” and the “inhibition of USP7 enzymatic activity” value was “completely inhibited USP7 enzymatic activity”. The growth inhibition entry with TC138 cells was “potently inhibited”. Further, in the series with TC71 cells, the growth inhibition result was “neither TP53-mutant A673 or TC71 was substantially inhibited”. Besides, the “cytotoxic effect after TP53 knockout” value in series [2] is listed as “rescued by TP53 knockout”. For the same compound, the transcriptional profile result with MCF7 cells is given as “strongly correlated transcriptional profiles”.
